Measurements taken from patent US9884063B2, “Amido-substituted azole compounds” (Bayer Pharma Aktiengesellschaft, priority 2014, dated 2018).
Counter-ions that a name gives are not always drawn.

How the values were obtained:
[1] = target: T1, TNKS1 (Homo sapiens, UniProt O95271); assay: Modified TNKS1 Assay 3 (BPS kit #80573, biotin-NAD+, 96 well); type: biochemical; details: human TNKS1, BPS kit #80573, 96 well
T1 sequence (O95271 1-1327): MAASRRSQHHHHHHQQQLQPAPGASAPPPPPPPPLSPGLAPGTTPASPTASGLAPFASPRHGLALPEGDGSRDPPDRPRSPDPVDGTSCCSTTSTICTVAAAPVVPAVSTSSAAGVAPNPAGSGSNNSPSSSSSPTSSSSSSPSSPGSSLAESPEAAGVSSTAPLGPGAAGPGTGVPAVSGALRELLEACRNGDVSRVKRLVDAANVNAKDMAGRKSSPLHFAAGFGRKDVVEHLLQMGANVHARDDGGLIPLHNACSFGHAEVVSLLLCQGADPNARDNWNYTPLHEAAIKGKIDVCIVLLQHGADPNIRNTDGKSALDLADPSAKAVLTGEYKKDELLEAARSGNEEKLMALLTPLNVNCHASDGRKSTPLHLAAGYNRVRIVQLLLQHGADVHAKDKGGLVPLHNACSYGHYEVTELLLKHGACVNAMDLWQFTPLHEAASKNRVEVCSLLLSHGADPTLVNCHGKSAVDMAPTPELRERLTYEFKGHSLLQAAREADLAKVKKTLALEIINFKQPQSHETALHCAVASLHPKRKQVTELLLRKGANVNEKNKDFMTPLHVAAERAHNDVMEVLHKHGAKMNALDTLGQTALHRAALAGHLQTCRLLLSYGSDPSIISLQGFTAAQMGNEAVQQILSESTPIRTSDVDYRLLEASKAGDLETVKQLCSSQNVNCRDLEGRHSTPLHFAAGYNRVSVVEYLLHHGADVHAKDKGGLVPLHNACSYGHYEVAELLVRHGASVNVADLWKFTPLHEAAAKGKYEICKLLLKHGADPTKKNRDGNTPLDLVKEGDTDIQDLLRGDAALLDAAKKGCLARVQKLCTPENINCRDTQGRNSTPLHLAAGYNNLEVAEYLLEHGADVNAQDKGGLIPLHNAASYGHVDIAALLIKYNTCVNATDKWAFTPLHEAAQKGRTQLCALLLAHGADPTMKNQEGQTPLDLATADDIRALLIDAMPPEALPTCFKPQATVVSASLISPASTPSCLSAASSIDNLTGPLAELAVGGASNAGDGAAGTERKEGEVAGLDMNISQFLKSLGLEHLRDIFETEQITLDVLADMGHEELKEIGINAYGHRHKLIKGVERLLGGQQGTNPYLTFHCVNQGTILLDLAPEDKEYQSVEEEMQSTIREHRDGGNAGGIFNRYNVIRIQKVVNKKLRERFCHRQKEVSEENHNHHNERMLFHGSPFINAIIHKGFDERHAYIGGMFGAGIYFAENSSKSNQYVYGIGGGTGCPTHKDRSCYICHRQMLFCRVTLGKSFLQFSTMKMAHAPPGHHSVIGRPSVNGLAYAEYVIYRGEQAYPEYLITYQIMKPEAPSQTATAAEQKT
Summary of the method: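 Chemiluminescent assay of TNKS1-catalysed ribosylation of a protein substrate with biotin-labelled NAD+, detected via streptavidin-HRP; run per kit protocol. Inhibition lowers the signal, and IC50 is the compound concentration halving the normalised readout.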

[2] = system: HEK293 FOP control reporter cell line; assay: HEK293 FOP Assay (FOP control vector luciferase reporter); type: cell-based; details: Homo sapiens, HEK293 FOP control reporter cell line, 16 hours incubation, compound dilution series 50 μM to 15 nM
Summary of the method: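 Stable HEK293 line carrying the FOP vector (randomized, non-functional TCF sites; Geneticin-selected) was run in parallel with the TOP line. Cells were plated 24 h ahead at 10000/well and given recombinant human Wnt-3a at 2500–5 ng/ml. Compounds were tested at 50 μM–15 nM (3.16-fold steps) in CAFTY buffer, pH 7.4, with 2 mM Ca2+ and 0.01% BSA.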

SMILES	IC50 [1] [µM]	IC50 [2] [µM]	IC50 ([2]; HEK293, 16 h) [µM]
O=C(Nc1ccc(NC(=O)c2nc[nH]c2C(=O)NCCN2CCC(F)(F)CC2)cc1)c1ccc(F)cc1Br [Example 215, N^4-{4-[(2-bromo-4-fluorobenzoyl)amino]phenyl}-N^5-[2-(4,4-difluoropiperidin-1-yl)ethyl]-1H-imidazole-4,5-dicarboxamide]	0.21	29.5	
O=C(Nc1ccc(NC(=O)c2ocnc2C(=O)NCCN2CCCC(F)C2)cc1)c1ccc(F)cc1Cl (centres unmarked) [Example 220, N^5-{4-[(2-chloro-4-fluorobenzoyl)amino]phenyl}-N^4-[2-(3-fluoropiperidin-1-yl)ethyl]-1,3-oxazole-4,5-dicarboxamide]	0.26	36	
O=C(Nc1ccc(NC(=O)c2ocnc2C(=O)NCCN2CC[C@H](F)C2)cc1)c1ccc(F)cc1Cl [Example 221, N^5-{4-[(2-chloro-4-fluorobenzoyl)amino]phenyl}-N^4-{2-[(3S)-3-fluoropyrrolidin-1-yl]ethyl}-1,3-oxazole-4,5-dicarboxamide]	> 0.5	12	
O=C(Nc1ccc(NC(=O)c2ocnc2C(=O)NCCN2CC[C@@H](F)C2)cc1)c1ccc(F)cc1Cl [Example 222, N^5-{4-[(2-chloro-4-fluorobenzoyl)amino]phenyl}-N^4-{2-[(3R)-3-fluoropyrrolidin-1-yl]ethyl}-1,3-oxazole-4,5-dicarboxamide]	0.22	23	
O=C(Nc1ccc(NC(=O)c2nc[nH]c2C(=O)NCCN2CCC(F)(F)CC2)cc1)c1ccc(F)cc1Cl [Example 224, N^4-{4-[(2-chloro-4-fluorobenzoyl)amino]phenyl}-N^5-[2-(4,4-difluoropiperidin-1-yl)ethyl]-1H-imidazole-4,5-dicarboxamide]	0.26	27	
O=C(Nc1ccc(NC(=O)c2nc[nH]c2C(=O)NCCN2CC[C@H](F)C2)cc1)c1ccc(F)cc1Cl [Example 232, N^4-{4-[(2-chloro-4-fluorobenzoyl)amino]phenyl}-N^5-{2-[(3S)-3-fluoropyrrolidin-1-yl]ethyl}-1H-imidazole-4,5-dicarboxamide]	0.29	35	
O=C(Nc1ccc(NC(=O)c2nc[nH]c2C(=O)NC2CCOCC2)cc1)c1ccc(F)cc1Cl [Example 234, N^4-{4-[(2-chloro-4-fluorobenzoyl)amino]phenyl}-N^5-(tetrahydro-2H-pyran-4-yl)-1H-imidazole-4,5-dicarboxamide]	0.22	16	
O=C(Nc1ccc(NC(=O)c2nc[nH]c2C(=O)N[C@@H]2CCNC2)cc1)c1ccc(F)cc1Cl [Example 282, N^4-{4-[(2-chloro-4-fluorobenzoyl)amino]phenyl}-N^5-[(3R)-pyrrolidin-3-yl]-1H-imidazole-4,5-dicarboxamide hydrochloride salt]	0.06		50
O=C(Nc1ccc(NC(=O)c2nc[nH]c2C(=O)NCC2CCCN2)cc1)c1ccc(F)cc1Cl (centres unmarked) [Example 284, N^4-{4-[(2-chloro-4-fluorobenzoyl)amino]phenyl}-N^5-(pyrrolidin-2-ylmethyl)-1H-imidazole-4,5-dicarboxamide hydrochloride salt]	0.06		50
CNC(=O)c1nc[nH]c1C(=O)Nc1ccc(NC(=O)c2cccc(C)c2Cl)cc1 [Example 346, N^5-{4-[(2-chloro-3-methylbenzoyl)amino]phenyl}-N^4-methyl-1H-imidazole-4,5-dicarboxamide]	> 0.5	26	

Further compounds by falling IC50 [1], results first:

IC50 [1] [µM]	SMILES	IC50 [2] [µM]	IC50 ([2]; HEK293, 16 h) [µM]
0.2	O=C(Nc1ccc(NC(=O)c2nc[nH]c2C(=O)NCCN2CCC(F)(F)CC2)cc1)c1ccccc1Cl [Example 214, N^4-{4-[(2-chlorobenzoyl)amino]phenyl}-N^5-[2-(4,4-difluoropiperidin-1-yl)ethyl]-1H-imidazole-4,5-dicarboxamide]	22	
0.2	O=C(Nc1ccc(NC(=O)c2nc[nH]c2C(=O)NCCN2CCOCC2)cc1)c1ccc(F)cc1Cl [Example 227, N^4-{4-[(2-chloro-4-fluorobenzoyl)amino]phenyl}-N^5-[2-(morpholin-4-yl)ethyl]-1H-imidazole-4,5-dicarboxamide]	23	
0.18	O=C(Nc1ccc(NC(=O)c2nc[nH]c2C(=O)NCCN2CCCC(F)(F)C2)cc1)c1ccc(F)cc1Cl [Example 225, N^4-{4-[(2-chloro-4-fluorobenzoyl)amino]phenyl}-N^5-[2-(3,3-difluoropiperidin-1-yl)ethyl]-1H-imidazole-4,5-dicarboxamide]	44	
0.11	CC(CN1CCOCC1)NC(=O)c1[nH]cnc1C(=O)Nc1ccc(NC(=O)c2ccc(F)cc2Cl)cc1 (centres unmarked) [Example 268, N^4-{4-[(2-chloro-4-fluorobenzoyl)amino]phenyl}-N^5-[1-(morpholin-4-yl)propan-2-yl]-1H-imidazole-4,5-dicarboxamide]	41	
0.09	O=C(Nc1ccc(NC(=O)c2nc[nH]c2C(=O)NCCN2CCC(F)CC2)cc1)c1ccc(F)cc1Cl [Example 230, N^4-{4-[(2-chloro-4-fluorobenzoyl)amino]phenyl}-N^5-[2-(4-fluoropiperidin-1-yl)ethyl]-1H-imidazole-4,5-dicarboxamide]	27	
0.07	O=C(Nc1ccc(NC(=O)c2nc[nH]c2C(=O)NCCN2CCC[C@@H](F)C2)cc1)c1ccc(F)cc1Cl [Example 277, N^4-{4-[(2-chloro-4-fluorobenzoyl)amino]phenyl}-N^5-{2-[(3R)-3-fluoropiperidin-1-yl]ethyl}-1H-imidazole-4,5-dicarboxamide]	36	
0.02	C[C@H]1CCCCN1CCNC(=O)c1[nH]cnc1C(=O)Nc1ccc(NC(=O)c2ccc(F)cc2Cl)cc1 [Example 266, N^4-{4-[(2-chloro-4-fluorobenzoyl)amino]phenyl}-N^5-{2-[(25)-2-methylpiperidin-1-yl]ethyl}-1H-imidazole-4,5-dicarboxamide formic acid salt]	20	
0.02	CN1CCN(CCCNC(=O)c2nc[nH]c2C(=O)Nc2ccc(NC(=O)c3ccc(F)cc3Cl)cc2)CC1 [Example 392, N^5-{4-[(2-chloro-4-fluorobenzoyl)amino]phenyl}-N^4-[3-(4-methylpiperazin-1-yl)propyl]-1H-imidazole-4,5-dicarboxamide]	18	
0.02	CC1CCN(CCCNC(=O)c2nc[nH]c2C(=O)Nc2ccc(NC(=O)c3ccc(F)cc3Cl)cc2)CC1 [Example 400, N^5-{4-[(2-chloro-4-fluorobenzoyl)amino]phenyl}-N^4-[3-(4-methylpiperidin-1-yl)propyl]-1H-imidazole-4,5-dicarboxamide]	13	
0.01	O=C(Nc1ccc(NC(=O)c2nc[nH]c2C(=O)NCCCN2CCCC2)cc1)c1ccc(F)cc1Cl [Example 274, N^4-{4-[(2-chloro-4-fluorobenzoyl)amino]phenyl}-N^5-[3-(pyrrolidin-1-yl)propyl]-1H-imidazole-4,5-dicarboxamide]	45	
0.001	CCN1CCC[C@H]1CNC(=O)c1nc[nH]c1C(=O)Nc1ccc(NC(=O)c2ccc(F)cc2Cl)cc1 [Example 404, N^5-{4-[(2-chloro-4-fluorobenzoyl)amino]phenyl}-N^4-{[(2S)-1-ethylpyrrolidin-2-yl]methyl}-1H-imidazole-4,5-dicarboxamide]	29	
0.0009	CCN1CCCC1CNC(=O)c1nc[nH]c1C(=O)Nc1ccc(NC(=O)c2ccc(F)cc2Cl)cc1 (centres unmarked) [Example 390, N^5-{4-[(2-chloro-4-fluorobenzoyl)amino]phenyl}-N^4-[(1-ethylpyrrolidin-2-yl)methyl]-1H-imidazole-4,5-dicarboxamide]	18	
